Assay: stability of individual enriched mycolactone isomers in presence and absence of laboratory light, followed by HPLC
Type: physicochemical
Settings: ambient light versus no light; data not shown
Description: To monitor stability of the individual enriched isomers, HPLC data was collected on samples stored in the presence and absence of laboratory light. Measurements were made on samples stored in methanol at 23° C. Initial HPLC sampling was carried out on individual isomers shielded to minimize exposure to laboratory light. These same samples were allowed to remain in the autosampler, shielded from light, for 72 hours before additional HPLC data was collected. Following this, the samples were stored on a lab bench exposed to laboratory light for 52 hours, at which time the final HPLC data time point was collected. Under these conditions, samples that were shielded from light remained stable, showing no change in their respective HPLC chromatograms.

Row | Compound | equilibration between double bond isomers
1 | mycolactone A | occur only when the sample was exposed to ambient light
2 | CC(=C\C=C\C(C)=C\C(O)C(O)CC(C)O)/C=C(C)/C=C/C(=O)OC1CCCC(=O)OC(C(C)C/C(C)=C/C(C)C(O)CC(C)O)C/C=C(\C)CC1C (centres unmarked) [mycolactone B] | occur only when the sample was exposed to ambient light

Source: US6562602B2, “Fermentation and purification of mycolactones” (priority 2000, dated 2003)
